For five molecules, IC50, GI50 and AC50 results are on record in US20260285853A1, “COMPOUNDS AND METHODS FOR MODULATING SPLICING” (REMIX THERAPEUTICS INC., priority 2023, published 2026).

SMILES strings stand for the structures.

Common to all, as to format: cell-based
One test has as its system SMN2 mRNA. The test is described as follows: Gene panel canonical junction qPCR assay, decrease in CJ mRNA, Table 3. The settings on record: decrease in canonical junction (CJ) mRNA, gene panel qPCR, Table 3. Summed up: (§1)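 Cells: A673 or K562; 24 h compound exposure, 37 °C, 5% CO2; 11-pt 3-fold series from 10 uM final; DMSO ≤0.25%. Lysate → cDNA → qPCR with junction-spanning primers/probe for CJ transcript. ΔCt vs housekeeper, ΔΔCt vs DMSO, 2^(−ΔΔCt), % response, 4PL → IC50.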
(In general: Real-time PCR tracks product formation cycle by cycle.)

Test [1] concerns MYB mRNA. Described as above. The settings on record: decrease in canonical junction (CJ) mRNA, gene panel qPCR, Table 3. The essentials:
as §1

Test [2] relates to HTT mRNA. Described as above. The settings on record: decrease in canonical junction (CJ) mRNA, gene panel qPCR, Table 3. Summed up:
as §1

Test [3] concerns SH-SY5Y (human neuroblastoma) cells. The test is described as follows: Cell viability, Cell Titer Glo 2.0 assay. The settings on record: read-out: Viability SHSY5Y.3 GI50. The essentials: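 CellTiter-Glo 2.0 luminescence read-out after 72 h compound exposure (37 °C, 5% CO2); medium-only wells as blank. DMSO 0.1% final.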
Test [4] deals with MYB mRNA. The test is described as follows: Splicing RT-qPCR assay, canonical (CJ) and alternative (AJ) junction mRNA, K562 cells. The settings on record: Homo sapiens, K562.3 cells, 24 hours; for AC50: read-out: MYB AJ (AC50, increase in AJ mRNA); for IC50: read-out: MYB CJ (IC50, decrease in CJ mRNA). Summed up:
(§2)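 RT-qPCR read-out: CJ and AJ isoforms quantified by ΔCt against GAPDH or GUSB, normalized to DMSO, and converted to % response. Windows in 96-well format (50,000 cells/well) were 4.0 ΔCt for MYB-CJ and 3 for MYB-AJ, and 3.5 ΔCt for HTT-CJ and 9 for HTT-AJ. Cells were dosed for 24 h, top 10 uM.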

Test [5] has as its system HTT mRNA. The test is described as above. The note with it: Homo sapiens, K562.3 cells, 24 hours; for AC50: read-out: HTT AJ (AC50, increase in AJ mRNA); for IC50: read-out: HTT CJ (IC50, decrease in CJ mRNA). Summed up: as §2
Test [6] relates to MYB mRNA. The test is described as follows: Splicing RT-qPCR assay (THP), Table 2A. The note with it: Table 2A (THP); for AC50: AJ mRNA increase, read-out: MYB AJ (increase in alternative junction mRNA, AC50); for IC50: CJ mRNA decrease, read-out: MYB CJ (decrease in canonical junction mRNA, IC50).

One may read the IC50 as the concentration at which inhibition is half-maximal. For orientation: GI50 means the concentration giving 50% growth inhibition. As usually defined, the AC50 is the midpoint of the concentration-response curve, whichever way the signal moves. As to `COc1c(NC(=O)c2ccc(N3CCNCC3)c3cc[nH]c23)cn2cc(C)nc2c1F` [Compound 212, N-(8-fluoro-7-methoxy-2-methyl-imidazo-[1,2-a]pyridin-6-yl)-4-piperazin-1-yl-1H-indole-7-carboxamide], the IC50 in the test on SMN2 mRNA was 1000 to 10000 nM; in the test on MYB mRNA [1], 1000 to 10000 nM; in the test on HTT mRNA [2] it was above 10000 nM; with MYB mRNA [4], 1000 to 10000 nM; in the test on HTT mRNA [5] it was above 10000 nM; in the test with MYB mRNA [6], above 10000 nM. The GI50 in test [3] was in the range of 1000 to 10000 nM. Moreover, the AC50 with MYB mRNA [4], in the test on HTT mRNA [5] and in the test with MYB mRNA [6] was above 10000 nM in each case.
Take `Cc1cn2cc(NC(=O)c3ccc(N4CCNCC4)c4cc[nH]c34)cc(F)c2n1` [Compound 213, N-(8-fluoro-2-methyl-imidazo[1,2-a]-pyridin-6-yl)-4-piperazin-1-yl-1H-indole-7-carboxamide]: the IC50 with SMN2 mRNA is above 10000 nM; in the test on MYB mRNA [1], above 10000 nM; with HTT mRNA [2], 1000 to 10000 nM; in the test with MYB mRNA [4] it was above 10000 nM; with HTT mRNA [5], 1000 to 10000 nM; with MYB mRNA [6] it was 1000 to 10000 nM. Besides, the GI50 in test [3] was in the range of 1000 to 10000 nM. Besides, the AC50 in the test with MYB mRNA [4], with HTT mRNA [5] and in the test with MYB mRNA [6] was above 10000 nM throughout.
Take `Cc1cn2cc(NC(=O)c3ccc(N4CCNCC4)c4nonc34)cc(F)c2n1` [Compound 263, N-(8-fluoro-2-methyl-imidazo[1,2-a]pyridin-6-yl)-4-piperazin-1-yl-2,1,3-benzoxadiazole-7-carboxamide]: the IC50 in the test with SMN2 mRNA was below 100 nM; with MYB mRNA [1] it was 100 to 1000 nM; in the test with HTT mRNA [2], 100 to 1000 nM; in the test with MYB mRNA [4], 100 to 1000 nM; in the test with HTT mRNA [5] it was 100 to 1000 nM; in the test on MYB mRNA [6], 100 to 1000 nM. Moreover, the GI50 in test [3] was 1000 to 10000 nM. Besides, the results for the AC50 in the test on MYB mRNA [4], in the test with HTT mRNA [5] and in the test with MYB mRNA [6] were 100 to 1000 nM, 1000 to 10000 nM and 100 to 1000 nM, respectively.
Consider `Cc1cn2cc(C(=O)Nc3c(F)cc(N4CCNCC4)c4cn[nH]c34)cc(F)c2n1` [Compound 267], for which the IC50 with SMN2 mRNA, in the test with MYB mRNA [1], in the test with HTT mRNA [2], with MYB mRNA [4], with HTT mRNA [5] and with MYB mRNA [6] was above 10000 nM each time. Also, the GI50 in test [3] was above 10000 nM. For the same molecule, the AC50 in the test on MYB mRNA [4], with HTT mRNA [5] and in the test with MYB mRNA [6] was above 10000 nM in each case.
With `COC1CC(N[C@H]2CCN(c3ccc(C(=O)Nc4cc(F)c5nc(C)cn5c4)c4nn(C)cc34)C2)C1` (stereo partly drawn) [Compound 268, N-(8-fluoro-2-methyl-imidazo[1,2-a]pyridin-6-yl)-4-[(3S)-3-[(3-methoxy-cyclobutyl)amino]pyrrolidin-1-yl]-2-methyl-indazole-7-carboxamide], the IC50 in the test on SMN2 mRNA was below 100 nM; in the test with MYB mRNA [1], below 100 nM; in the test with HTT mRNA [2], 100 to 1000 nM; in the test on MYB mRNA [4], below 100 nM; in the test on HTT mRNA [5], 100 to 1000 nM; in the test with MYB mRNA [6] it was below 100 nM. The GI50 in test [3] was in the range of 100 to 1000 nM. For the same molecule, the AC50 was 100 to 1000 nM in the test on MYB mRNA [4], 1000 to 10000 nM in the test on HTT mRNA [5] and below 100 nM in the test with MYB mRNA [6].
